Laboratory results taken from US20090105172A1, “Stabilized Aptamers to PSMA and Their Use as Prostate Cancer Therapeutics” (priority 2005, published 2009).
Strand notation (5' to 3'): a small letter for the sugar, then the base; units joined by * are phosphorothioate-linked, units joined directly phosphodiester-linked; [ ] holds rarer units or linkages, { } end groups; capitals alone tell only the bases. {NH2} = amine modification, hexylamine terminal group for chemical coupling; [invdT] = inverted (3'-3') thymidine; d = 2'-deoxy (DNA); m = 2'-O-methyl; r = 2'-OH (RNA); f = 2'-fluoro

Assays:
[1] = docetaxel in combination with prednisone (cited clinical trial, not the aptamer), every three weeks; cited from earlier work
[2] = Plasma stability time course assay; assay type: in vitro ADME; conditions: 95% human plasma, 37° C.
Protocol: Plasma stability of each construct was measured using a plasma stability time course assay over 0, 1, 3, 10, 30, and 100 hours. A reaction was set up for each aptamer tested in an eppendorf tube using 95% human plasma (20 μl per time point), an appropriate concentration of aptamer (determined by the highest predicted dosing level (CMax)), and a sufficient amount of spiked 5′-end labeled aptamer such that a 1:10 dilution of the reaction will be over 1000 cpm, brought to total volume with 1×PBS. When assembling the reaction, the plasma was added last, and the reactions were immediately added to a 37° C. heat block. A reaction for each aptamer tested containing 1×PBS instead of plasma was used as a 0 hour time point. At each designated time point, 20 μl was withdrawn from each reaction and added to an appropriately labeled eppendorf tube containing 200 μl of formamide loading dye, and was immediately snap frozen in liquid nitrogen and stored at −20° C. After all the samples were collected 20 μl of each plasma sample/loading dye was aliquoted into separate tubes, and 2 μl of 1% SDS was added to each tube (final SDS concentration 0.1%). The samples containing 0.1% SDS were heated at 90° C. for 10-15 minutes. […]
The percentage of the parent aptamer remaining for each time-point was determined by quantifying the parent aptamer band and dividing by the total counts in the lane. […]

PSMA NAALADase activity = PSMA NAALADase activity (Homo sapiens, UniProt Q04609); assay: NAALADase inhibition assay; assay type: biochemical; conditions: relative to parent
Protocol: These point mutant constructs were assessed for activity in terms of inhibition of PSMA NAALADase activity. The NAALADase assay was performed in 96 well format. PSMA aptamers were serially diluted in 1× reaction buffer (40 mM Tris-HCl, pH 7.4, 0.1 mM ZnSO4, 0.1 mg/in L BSA) in a standard 96 well plate to be tested at a final concentration range from 30 pM to 1 μM. The enzyme was prepared by diluting 30 μL of 100 nM PSMA into 8 mL of reaction buffer, and kept cool on ice. The substrate was prepared by adding 19 μl of NAAG [Glutamate-3,4-^3H], 50.8 Ci/mmol, 19.7 μM (Perkin-Elmer, Wellesley, Mass., NET1082) into 2.2 mL of reaction buffer.
Following preparation of all reagents, 4 μl of each serially diluted aptamer was added to a separate 96 well plate (the reaction plate). 76 μl of diluted enzyme was added to the corresponding wells containing aptamer. 80 μl of reaction buffer was added to one column of wells to serve as a background control. The diluted substrate and reaction plate were then moved to a room at 37° C. and allowed to equilibrate for 10 minutes. After temperature equilibration, 20 μl of the prepared substrate was added to each well using a 12 channel pipet for a final volume of 100 μl/well, and a final concentration of […] enzyme and 30 nM substrate per well. A column of wells containing enzyme and substrate only was used as a high control. The aptamer/enzyme/substrate reaction was incubated at 37° C. for 15 minutes, and stopped by the addition of 100 μl of quench buffer (100 mM sodium phosphate, pH 7.4, 2 mM EDTA).
To separate the cleavage products, […] and Glutamate, from the substrate, an AG 1-X8, 200-400 mesh, formate resin (BioRad, Hercules, Calif., # 140-1454) was used. The resin was prepared by forming a 1:1 slurry in H2O, and adding 140 μl per 96 well using a Multiscreen filter plate (Multiscreen, 1.2 μm filter plates (Millipore, Billerica, Mass., # MABVN1250)). […] The plate was sealed and read using a Packard Topcount Microplate Scintillation Counter. […]

LNCaP cells (PSMA+) = assay: LNCaP FACS binding assay with fluorescein-labeled aptamers; assay type: cell-based; conditions: FACS histogram
Protocol: To prepare aptamers for the FACS assay, PSMA aptamers were serially diluted (0-1 uM) in FACS buffer (1×DPBS w/Ca^++/Mg^++ (Gibco, Carlsbad, Calif.) supplemented with 10 mg/mL salmon sperm DNA & 0.2% Na Azide), in a V-bottom 96 well plate, at the concentrations to be tested. LNCaP and PC-3 cells (ATCC, Manassas, Va.) were harvested with trypsin, and 200,000 cells/well were counted, washed once with 1×DPBS (with Ca^++ and Mg^+) and resuspended in 200 μl of FACS Buffer. The 200 μl of cells in FACS buffer were added to individual wells of a new 96 well plate, pelleted by centrifugation (1300 rpm for 5 minutes), and resuspended in 100 μl of the appropriate concentration of diluted aptamer. FACS buffer, a-PSMA antibody (3C6) (Northwest Biotherapeutics, Bothell, Wash., Cat #: 60-5002) and an irrelevant fluorescein isothiocyanate (“FITC”) mouse IgG1 isotype control antibody (BD Pharmingen, San Diego, Calif., Cat#: 554679) were used as controls. The wells of aptamer/cell mixture were incubated at room temperature for 20-30 minutes.
After incubation, 180 μl of FACS buffer (plus 10 mg/mL ssDNA, and 0.2% Na Azide) was added to each well to quench the reaction and cells were pelleted by centrifugation.
Anti-fluorescein/Oregon Green®, rabbit IgG fraction, Alexa Fluor® 488 conjugate (Molecular Probes, Eugene, Oreg., Cat#: A11090) was diluted 1:100 in FACS buffer (100 μl/well) as the secondary antibody for the aptamer-FITC conjugates and FITC-mouse IgG isotype control. FITC Rat anti-mouse IgG1 (A85-1) (BD Pharmingen, San Diego, Calif., Cat#: 553443) was diluted in 1:100 in FACS Buffer as the secondary for the α-PSMA antibody. After centrifugation, the cell pellets were resuspended in 100 μl of the appropriate diluted secondary antibody, and incubated 10 minutes at room temperature. After incubation, 180 μl of FACS buffer was added to each well to quench the reaction, and cells were pelleted by centrifugation.
A tertiary antibody which recognizes the Alexa Fluor® 488 goat anti-rabbit IgG was prepared to further amplify the Alexa Fluor signal. Alexa Fluor® 488 goat anti-rabbit IgG (H+ L) (Molecular Probes, Eugene, Oreg., Cat#: A11034) was diluted 1:100 in FACS buffer, and the pelleted cells were resupsended in 100 μl of the tertiary antibody and incubated for 10 minutes at room temperature. […]
(§1) Cell samples were analyzed on a FACS Scan machine (Becton Dickinson, San Jose, Calif.) under the following parameters: FSC/SSC, FL-1/FSC, FL-3/FSC. The unstained and/or isotype controls were used to establish gating parameters, and the data was analyzed using Cell Quest Pro software version 5.1.1 (Becton Dickinson Immunocytometry Systems, San Jose, Calif.).

PC-3 cells (PSMA−) = assay: FACS binding assay, control cell line; assay type: cell-based; conditions: FACS histogram
Protocol: To prepare aptamers for the FACS assay, PSMA aptamers were serially diluted (0-1 uM) in FACS buffer (1×DPBS w/Ca^++/Mg^++ (Gibco, Carlsbad, Calif.) supplemented with 10 mg/mL salmon sperm DNA & 0.2% Na Azide), in a V-bottom 96 well plate, at the concentrations to be tested. LNCaP and PC-3 cells (ATCC, Manassas, Va.) were harvested with trypsin, and 200,000 cells/well were counted, washed once with 1×DPBS (with Ca^++ and Mg^+) and resuspended in 200 μl of FACS Buffer. The 200 μl of cells in FACS buffer were added to individual wells of a new 96 well plate, pelleted by centrifugation (1300 rpm for 5 minutes), and resuspended in 100 μl of the appropriate concentration of diluted aptamer. FACS buffer, a-PSMA antibody (3C6) (Northwest Biotherapeutics, Bothell, Wash., Cat #: 60-5002) and an irrelevant fluorescein isothiocyanate (“FITC”) mouse IgG1 isotype control antibody (BD Pharmingen, San Diego, Calif., Cat#: 554679) were used as controls. The wells of aptamer/cell mixture were incubated at room temperature for 20-30 minutes. […]
as §1

PSMA NAALADase activity, sequence (Q04609 with tags, fused parts or gaps limits assumed): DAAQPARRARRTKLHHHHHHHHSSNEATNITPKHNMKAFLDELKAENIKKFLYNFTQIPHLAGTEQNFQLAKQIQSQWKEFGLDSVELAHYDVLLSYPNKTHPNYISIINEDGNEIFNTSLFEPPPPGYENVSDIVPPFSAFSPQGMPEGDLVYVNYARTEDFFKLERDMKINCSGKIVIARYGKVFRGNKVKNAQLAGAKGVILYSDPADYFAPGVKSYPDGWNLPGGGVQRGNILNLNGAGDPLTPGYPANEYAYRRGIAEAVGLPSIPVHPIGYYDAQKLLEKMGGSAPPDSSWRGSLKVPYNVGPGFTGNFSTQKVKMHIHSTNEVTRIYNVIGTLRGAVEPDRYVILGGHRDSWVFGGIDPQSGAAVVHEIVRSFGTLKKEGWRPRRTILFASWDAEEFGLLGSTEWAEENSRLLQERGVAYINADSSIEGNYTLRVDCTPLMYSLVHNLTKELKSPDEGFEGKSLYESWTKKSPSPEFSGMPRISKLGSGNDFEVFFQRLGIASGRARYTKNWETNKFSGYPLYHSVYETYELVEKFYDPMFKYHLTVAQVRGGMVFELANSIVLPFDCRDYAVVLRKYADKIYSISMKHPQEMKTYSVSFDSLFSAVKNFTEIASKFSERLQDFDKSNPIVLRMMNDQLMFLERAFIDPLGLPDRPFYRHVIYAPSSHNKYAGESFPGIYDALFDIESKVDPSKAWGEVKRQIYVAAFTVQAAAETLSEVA

## CC(=O)O[C@@]12CO[C@@H]1C[C@H](O)[C@@]1(C)C(=O)[C@H](O)C3=C(C)[C@@H](OC(=O)[C@H](O)[C@@H](NC(=O)OC(C)(C)C)c4ccccc4)C[C@@](O)([C@@H](OC(=O)c4ccccc4)[C@H]21)C3(C)C [Taxotere, docetaxel]
[1]
  survival advantage over control group (mitoxantrone and prednisone): approximately 2.5 months

## NH2-mCmGmGmAfCfCmGAAfCAmAmGmGmCfCfUGAfCfUfUfCfUAfUAfCfUAAmGmCmCmUAfCmGfUmUmCmCmG-3T ({NH2}-mCmGmGmAfCfCmGrArAfCrAmAmGmGmCfCfUrGrAfCfUfUfCfUrAfUrAfCfUrArAmGmCmCmUrAfCmGfUmUmCmCmG[invdT]; further chemistry not fully specified) [ARC1113, ribo-containing aptamer based on ARC 591 with fully-stabilized helical stems and a 3′-cap]
[2]
  half life (T1/2) in plasma: 20 h

## mCmGmGmAfCfCmGdAdAfCmAmAmGmGmCfCfU-s-dGmAfCfUfUfCfUmAfUmAfCfUdAmAmGmCmCmUmAfCmGfUmUmCmCmG-3T (mCmGmGmAfCfCmGdAdAfCmAmAmGmGmCfCfU*dGmAfCfUfUfCfUmAfUmAfCfUdAmAmGmCmCmUmAfCmGfUmUmCmCmG[invdT]) [ARC1725, ribo-free version based on ARC591]
PSMA NAALADase activity
  activity in the NAALADase inhibition assay: retained full activity
[2]
  half life (T1/2) in plasma: 11 h

B1: GGGAGGACGAUGCGGACCGAAAAAGACCUGAfCfIUfCfUAfUAfCfUAAGfUfCfUAf CGfTUIJfCfCfCAGAfCGAfCfUfCGfCfCfCGA (nucleic acid)
chain: GGGAGGACGAUGCGGACCGAAAAAGACCUGACUUCUAUACUAAGUCUACGUUCCCAGACGACUCGCCCGA
modifications: 2'-fluoro at CU, RNA at AG, backbone not given here
notes: existing PSMA specific aptamer of rRfY composition from U.S. Ser. No. 09/978,969
LNCaP cells (PSMA+)
  binding to LNCaP (PSMA+) cells: binding to LNCaP (PSMA+) cells
PC-3 cells (PSMA−)
  binding to PC-3 (PSMA−) cells: not to PC-3 (PSMA−) cells
